According to ChEMBL document CHEMBL4138272, “Neuroprotective Dihydroagarofuran Sesquiterpene Derivatives from the Leaves of Tripterygium wilfordii” (2018):
The source made the active and inactive calls. No cut-off for these calls is given here.

tested on: PC-12; assay: Neuroprotective activity against okadaic acid-induced cell injury in rat PC12 cells assessed as cell viability at 10 uM after 48 hrs by MTT assay (reference value: 60.4 +/- 23%); assay type: functional; details: not given

| Structure (SMILES) | Activity |
| --- | --- |
| CC(=O)OC[C@@]12[C@@H](OC(=O)/C=C/c3ccccc3)CC[C@](C)(O)[C@]13OC(C)(C)[C@H]([C@@H](OC(C)=O)[C@H]2OC(=O)c1ccoc1)[C@H]3O | inactive |
| CC(=O)O[C@@H]1[C@H]2[C@@H](O)[C@@H](OC(=O)c3ccoc3)[C@]3(CO)[C@@H](OC(=O)/C=C/c4ccccc4)CC[C@](C)(O)[C@@]13OC2(C)C | inactive |
| CC(=O)OC[C@@]12[C@@H](OC(=O)/C=C/c3ccccc3)CC[C@](C)(O)[C@]13OC(C)(C)[C@H]([C@@H](O)[C@H]2OC(=O)c1ccoc1)[C@H]3OC(C)=O | inactive |
| CC(=O)OC[C@@]12[C@@H](OC(=O)/C=C/c3ccccc3)CC[C@](C)(O)[C@]13OC(C)(C)[C@H]([C@@H](O)[C@H]2O)[C@H]3OC(C)=O | inactive |
| CC(=O)OC[C@@]12[C@@H](OC(=O)c3ccoc3)CC[C@@H](C)[C@]13OC(C)(C)[C@H]([C@@H](OC(C)=O)[C@H]2OC(=O)c1cccnc1)[C@H]3OC(=O)c1ccoc1 | inactive |
| CC(=O)OC[C@@]12[C@@H](OC(=O)/C=C/c3ccccc3)CC[C@](C)(O)[C@]13OC(C)(C)[C@H](C(=O)[C@H]2OC(=O)c1ccoc1)[C@H]3O | inactive |
| CC(=O)OC[C@@]12[C@@H](OC(=O)/C=C\c3ccccc3)CC[C@](C)(O)[C@]13OC(C)(C)[C@H](C(=O)[C@H]2OC(=O)c1ccoc1)[C@H]3O | inactive |
| CC(=O)OC[C@@]12[C@@H](OC(=O)/C=C\c3ccccc3)CC[C@](C)(O)[C@]13OC(C)(C)[C@H]([C@@H](OC(C)=O)[C@H]2OC(=O)c1ccoc1)[C@H]3O | inactive |

same assay, conditions: PC-12, 48 h, read-out: Activity

| Structure (SMILES) | viability at 10 µM |
| --- | --- |
| CC(=O)OC[C@@]12[C@@H](OC(=O)/C=C/c3ccccc3)CC[C@@H](C)[C@]13OC(C)(C)[C@H]([C@@H](OC(C)=O)[C@H]2OC(=O)c1cccnc1)[C@H]3OC(C)=O | 81.2% |
| CC(=O)OC[C@@]12[C@@H](OC(C)=O)CC[C@@H](C)[C@]13OC(C)(C)[C@H]([C@@H](OC(C)=O)[C@H]2OC(=O)c1cccnc1)[C@H]3OC(=O)c1ccoc1 | 71.5% |
| CC(=O)OC[C@@]12[C@@H](OC(=O)c3ccoc3)CC[C@@H](C)[C@]13OC(C)(C)[C@H]([C@@H](OC(C)=O)[C@H]2OC(=O)c1cccnc1)[C@H]3OC(C)=O | 72.4% |
| CC(=O)OC[C@@]12[C@@H](OC(=O)/C=C\c3ccccc3)CC[C@@H](C)[C@]13OC(C)(C)[C@H]([C@@H](OC(C)=O)[C@H]2OC(=O)c1cccnc1)[C@H]3OC(C)=O | 75.7% |
| CC(=O)OC[C@]12[C@H](OC(C)=O)[C@H](OC(C)=O)[C@@H]3[C@@H](OC(=O)c4ccccc4)[C@@]14OC3(C)COC(=O)c1cccnc1C(C)C(C)C(=O)O[C@@H]([C@H](O)[C@@H]2OC(=O)c1ccccc1)[C@]4(C)O (stereo partly drawn) | 86.2% |
